Measurements from ChEMBL document CHEMBL4354855 (J Med Chem, 2020).

Legend:
[1] = Stability of the compound in GSH assessed as parent compound remaining measured after 24 hrs; type: physicochemical; details: GSH (glutathione); read-out: Stability
[2] = Half life in human plasma; type: ADME, cell-free
[3] = Intrinsic clearance in rat liver microsomes; type: ADME, Microsome; details: read-out: CLH
[4] = Lipophilicity, log P of the compound; type: physicochemical; details: octanol/water
[5] = Drug level in OFA-1 rat blood at 3 mg/kg, po measured after 5 hrs; type: ADME, organism-based; details: whole blood, read-out: Drug uptake
[6] = Clearance in OFA-1 rat at 3 mg/kg, po; type: ADME, organism-based; details: in vivo
[7] = Drug level in OFA-1 rat blood at 10 mg/kg, po measured after 5 hrs; type: ADME, organism-based; details: whole blood, read-out: Drug uptake
[8] = Oral bioavailability in OFA-1 rat at 10 mg/kg; type: ADME, organism-based; details: in vivo
[9] = Oral bioavailability in Beagle dog at 3 mg/kg; type: ADME, organism-based, Canis lupus familiaris; details: in vivo
[10] = Intrinsic clearance in dog liver microsomes; type: ADME, Canis lupus familiaris, Microsome; details: read-out: CLH
[11] = Drug level in OFA-1 rat at 1 mg/kg, po measured after 5 hrs; type: ADME, organism-based; details: in vivo, read-out: Drug uptake
[12] = Dose normalized Cmax in Lewis rat at 1 mg/kg, iv or 3 mg/kg, po; type: ADME, organism-based; details: in vivo
[13] = Volume of distribution at steady state in Beagle dog at 1 mg/kg, iv or 3 mg/kg, po; type: ADME, organism-based, Canis lupus familiaris; details: in vivo, read-out: Vdss
[14] = Clearance in C57BL/6 mouse at 1 mg/kg, iv or 3 mg/kg, po; type: ADME, organism-based; details: in vivo
[15] = Drug level in OFA-1 rat at 1 mg/kg, po measured after 0.5 hrs; type: ADME, organism-based; details: in vivo, read-out: Drug uptake
[16] = Half life in C57BL/6 mouse at 1 mg/kg, iv or 3 mg/kg, po; type: ADME, organism-based; details: in vivo
[17] = Thermodynamic solubility of the compound at pH 1; type: physicochemical; details: buffer, read-out: Therm_solubility
[18] = Tmax in Beagle dog at 1 mg/kg, iv or 3 mg/kg, po; type: ADME, organism-based, Canis lupus familiaris; details: in vivo
[19] = Dose normalized Cmax in Beagle dog at 1 mg/kg, iv or 3 mg/kg, po; type: ADME, organism-based, Canis lupus familiaris; details: in vivo
[20] = Oral bioavailability in C57BL/6 mouse at 3 mg/kg; type: ADME, organism-based; details: in vivo
[21] = Tmax in Lewis rat at 1 mg/kg, iv or 3 mg/kg, po; type: ADME, organism-based; details: in vivo
[22] = Dose normalized AUC in C57BL/6 mouse at 3 mg/kg, po; type: ADME, organism-based; details: in vivo
[23] = Clearance in Lewis rat at 1 mg/kg, iv or 3 mg/kg, po; type: ADME, organism-based; details: in vivo
[24] = Clearance in Beagle dog at 1 mg/kg, iv or 3 mg/kg, po; type: ADME, organism-based, Canis lupus familiaris; details: in vivo
[25] = Volume of distribution at steady state in C57BL/6 mouse at 1 mg/kg, iv or 3 mg/kg, po; type: ADME, organism-based; details: in vivo, read-out: Vdss
[26] = Volume of distribution at steady state in Lewis rat at 1 mg/kg, iv or 3 mg/kg, po; type: ADME, organism-based; details: in vivo, read-out: Vdss
[27] = Half life in Beagle dog at 1 mg/kg, iv or 3 mg/kg, po; type: ADME, organism-based, Canis lupus familiaris; details: in vivo
[28] = Oral bioavailability in Lewis rat at 3 mg/kg; type: ADME, organism-based; details: in vivo
[29] = Half life in Lewis rat at 1 mg/kg, iv or 3 mg/kg, po; type: ADME, organism-based; details: in vivo
[30] = Intrinsic clearance in mouse liver microsomes; type: ADME, Microsome; details: read-out: CLH
[31] = Dose normalized AUC in Lewis rat at 3 mg/kg, po; type: ADME, organism-based; details: in vivo
[32] = Thermodynamic solubility of the compound at pH 6.8; type: physicochemical; details: buffer, read-out: Therm_solubility
[33] = Dose normalized Cmax in C57BL/6 mouse at 1 mg/kg, iv or 3 mg/kg, po; type: ADME, organism-based; details: in vivo
[34] = Dose normalized AUC in Beagle dog at 3 mg/kg, po; type: ADME, organism-based, Canis lupus familiaris; details: in vivo
[35] = Tmax in C57BL/6 mouse at 1 mg/kg, iv or 3 mg/kg, po; type: ADME, organism-based; details: in vivo

A remaining at 24 h [1] of 95.8% was found for `C/C=C/C(=O)N(C)CCOc1c(N)ncnc1-c1cc(F)cc(NC(=O)c2ccc(C3CC3)cc2F)c1C` in this work.

A remaining at 24 h [1] of 79.6% was found for `CC#CC(=O)N(C)CCOc1c(N)ncnc1-c1cc(F)cc(NC(=O)c2ccc(C3CC3)cc2F)c1C` in this work.

A half-life [2] of 96 min and a remaining at 24 h [1] of 0.1% were found for `C#CC(=O)N(C)CCOc1c(N)ncnc1-c1cc(F)cc(NC(=O)c2ccc(C3CC3)cc2F)c1C` in this work.

A microsomal CLint [3] of 924 µL/min/mg was found for `C=CC(=O)N(C)C/C=C/c1c(N)ncnc1-c1cc(F)cc(NC(=O)c2ccc(C3CC3)cc2)c1C` in this work.

A logP [4] of 3.6 and a half-life [2] greater than 120 min were found for `C=CC(=O)N(CC)CCOc1c(N)ncnc1-c1cc(F)cc(NC(=O)c2ccc(C3CC3)cc2F)c1C` in this work.

A concentration at 5 h [5] of 207 nM and a half-life [2] greater than 120 min were found for `C=CC(=O)N1CCC(Oc2c(N)ncnc2-c2cc(F)cc(NC(=O)c3ccc(C4CC4)cc3F)c2C)CC1` in this work.

A half-life [2] greater than 120 min and a CL/F [6] of 307 mL/min/kg were found for `C=CC(=O)N(C)C/C=C/c1c(N)ncnc1-c1cc(F)cc(NC(=O)c2ccc(C3CC3)cc2F)c1C` in this work.

A microsomal CLint [3] of 815 µL/min/mg was found for `C=CC(=O)N(C)CC/C=C/c1c(N)ncnc1-c1cc(F)cc(NC(=O)c2ccc(C3CC3)cc2)c1C` in this work.

A half-life [2] greater than 120 min was found for `C=CC(=O)NCCOc1c(N)ncnc1-c1cc(F)cc(NC(=O)c2ccc(C3CC3)cc2F)c1C` in this work.

A remaining at 24 h [1] of 60.8% was found for `Cc1c(NC(=O)c2ccc(C3CC3)cc2F)cc(F)cc1-c1ncnc(N)c1OCCN(C)C(=O)/C=C/CN(C)C` in this work.

A half-life [2] of 42 min was found for `C=CC(=O)N1CC[C@H]1COc1c(N)ncnc1-c1cc(F)cc(NC(=O)c2ccc(C3CC3)cc2F)c1C` in this work.

A concentration at 5 h [7] of 13 nM, a microsomal CLint [3] of 25 µL/min/mg and a bioavailability [8] of 5% were found for `C=CC(=O)N1CC(Oc2c(N)ncnc2-c2cc(F)cc(NC(=O)c3ccc(C4CC4)cc3)c2C)C1` in this work.

A half-life [2] of 35 min and a bioavailability [8] of 51% were found for `C=CC(=O)N1CC(Oc2c(N)ncnc2-c2cc(F)cc(NC(=O)c3ccc(C4CC4)cc3F)c2C)C1` in this work.

A half-life [2] greater than 120 min was found for `C=CC(=O)N1CCC[C@H]1COc1c(N)ncnc1-c1cc(F)cc(NC(=O)c2ccc(C3CC3)cc2F)c1C` in this work.

A bioavailability [9] of 5%, a microsomal CLint [10] of 146 µL/min/mg and a concentration at 5 h [11] of 5.6 nM were found for `C=CC(=O)N(C)CCOc1c(N)ncnc1-c1cc(F)cc(NC(=O)c2ccc(C3CC3)cc2F)c1C` [REMIBRUTINIB] in this work. The Cmax/dose [12] was 148 nM, the Vd [13] was 1 L/kg and the clearance [14] was 97 mL/min/kg. The concentration at 0.5 h [15] was 49.1 nM, the logP [4] was 2.9 and the half-life [16] was 60 min. It also gave a solubility thermodynamic [17] greater than 1500 µg/mL, a half-life [2] greater than 120 min and a Tmax [18] of 48 min. It also gave a Cmax/dose [19] of 19 nM, a bioavailability [20] of 16% and a Tmax [21] of 18 min. For the same molecule, the AUC/dose [22] was 54 nM·h, the clearance [23] was 44 mL/min/kg and the clearance [24] was 29 mL/min/kg. It also gave a Vd [25] of 1 L/kg, a microsomal CLint [3] of 33 µL/min/mg and a Vd [26] of 1.4 L/kg. The remaining at 24 h [1] was 68.5%, the half-life [27] was 54 min and the bioavailability [28] was 29%. The half-life [29] was 30 min, the microsomal CLint [30] was 325 µL/min/mg and the AUC/dose [31] was 225 nM·h. For the same molecule, the solubility thermodynamic [32] was less than 3 µg/mL, the Cmax/dose [33] was 53 nM and the AUC/dose [34] was 55 nM·h. For the same molecule, the Tmax [35] was 18 min.

A microsomal CLint [3] of 135 µL/min/mg was found for `C=CC(=O)N1CCC(Oc2c(N)ncnc2-c2cc(F)cc(NC(=O)c3ccc(C4CC4)cc3)c2C)C1` (stereo not drawn) in this work.
